Measured values as given in US7754768B2, “Methods and compositions for modulating alpha adrenergic receptor activity” (Allergan, Inc., priority 2000, dated 2010).

What was measured:
[1] = system: allodynia resulting from shingles; experiment: Treatment of allodynia resulting from shingles in a patient; format: in vivo, human; details: oral capsule as needed, after two days' treatment, one patient
Text: A person in generally good physical condition suffers from serious pain to their upper body due caused by contact of their skin with their clothing. The patient is unable to wear clothing on their upper body without severe pain. […] The patient is given a therapeutically effective oral dose of FORMULA 3 in capsule form as needed for the treatment of pain. […] Same facts as in Example 5, except the patient is given a therapeutically effective oral dose of FORMULA 2 in capsule form as needed for the treatment of pain.

male Sprague-Dawley rats = experiment: Rat locomotor model to assess sedation (exploratory activity); format: in vivo; details: 30 minutes after injection, versus vehicle controls
Method: (§1) The physiological activity of these compounds was tested using four models: a rat locomotor model to assess sedation, an assay of cardiovascular activity in monkeys, a rat thermal paw withdrawal assay (Dirig et al., J. Neurosci. Methods 76:183-191 (1997) to test the alleviation of acute pain, and the rat spinal nerve ligation allodynia model (Kim and Chung, Pain 50:355-363 (1992) to assess the alleviation of neuropathic pain and central sensitization typical of chronic pain. As is known to those of skill in the art, these tests are established pharmacological methods for determining sedation, cardiovascular effects, acute pain and chronic pain, respectively, of pharmaceutical agents.
To test sedation, six male Sprague-Dawley rats were given up to 3 mg/kg of each compound in a saline or DMSO vehicle by intraperitoneal injection (i.p.). Sedation was graded 30 minutes following administration of the drug by monitoring locomotor skills as follows.
The Sprague-Dawley rats are weighed and 1 ml/kg body weight of an appropriate concentration (ie. 3 mg/ml for a final dose of 3 mg/kg) drug solution is injected intraperitoneally. FORMULA 3 is formulated in approximately 10% DMSO and FORMULA 2 and FORMULA 4 are formulated in 50% DMSO. The results are compared to 29 historical controls that were injected with 1 ml/kg saline or 50% DMSO. Rat activity is then determined 30 minutes after injection of the drug solution. Rats are placed in a dark covered chamber and a digicom analyzer (Omnitech Electronic) quantitates their exploratory behavior for a five-minute period. The machine records each time the rat interrupts an array of 32 photoelectric beams in the X and Y orientation.
FORMULA 2 and FORMULA 3 were tested at 1 mg/kg and FORMULA 4 was tested at 3 mg/kg. Thus, the compounds are not sedating.

visceral pain = experiment: Treatment of visceral pain in a colon cancer patient; format: in vivo, human; details: intravenous infusion twice daily, after two days, one patient
Text: A patient suffering from colon cancer and undergoing chemotherapy experiences severe visceral pain associated with this primary condition. Treatment of this pain with opiates has been ineffective to provide substantial relief. The patient is given a therapeutic amount of FORMULA 3 by intravenous infusion in a pharmaceutically acceptable vehicle. The treatment is given twice daily. […] Under the same facts as Example 7, except the patient is given FORMULA 2 instead of FORMULA 3.

[2] = system: rat spinal nerve ligation allodynia model; experiment: Rat spinal nerve ligation allodynia model (chronic pain, von Frey tactile allodynia); format: in vivo; details: 30 minutes after administration
Method: as §1
A model for chronic pain (in particular peripheral neuropathy such as causalgia) involves the surgical ligation of the L5 (and optionally the L6) spinal nerves on one side in experimental animals. Rats recovering from the surgery gain weight and display a level of general activity similar to that of normal rats. However, these rats develop abnormalities of the foot, wherein the hindpaw is moderately everted and the toes are held together. More importantly, the hindpaw on the side affected by the surgery appears to become sensitive to pain from low-threshold mechanical stimuli, such as that producing a faint sensation of touch in a human, within about 1 week following surgery. This sensitivity to normally non-painful touch is called “tactile allodynia” and lasts for at least two months. The response includes lifting the affected hindpaw to escape from the stimulus, licking the paw and holding it in the air for many seconds. None of these responses is normally seen in the control group.
Rats are anesthetized before surgery. The surgical site is shaved and prepared either with betadine or Novacaine. Incision is made from the thoracic vertebra X111 down toward the sacrum. Muscle tissue is separated from the spinal vertebra (left side) at the L4-S2 levels. The L6 vertebra is located and the transverse process is carefully removed with a small rongeur to expose the L4-L6 spinal nerves. The L5 and L6 spinal nerves are isolated and tightly ligated with 6-0 silk thread. The same procedure is done on the right side as a control, except no ligation of the spinal nerves is performed.
A complete hemostasis is confirmed, then the wounds are sutured. A small amount of antibiotic ointment is applied to the incised area, and the rat is transferred to the recovery plastic cage under a regulated heat-temperature lamp. […]
Tactile allodynia is measured prior to and 30 minutes after drug administration using von Frey hairs that are a series of fine hairs with incremental differences in stiffness. […] The applied force has been calculated to range from 0.41 to 15.1 grams. […]

[3] = system: African Green monkeys made glaucomatous; experiment: Intraocular pressure in glaucomatous African Green monkeys after oral dosing; format: in vivo, African Green monkey
Method: African Green monkeys are made glaucomatous and divided into three groups. Ocular hypertension is measured before the administration of any drug, then one of each group of animals is given an oral dose of either a) glucose (negative control); b) a formulation of FORMULA 2 at a dosage of either 2 mg/kg or 7 mg/kg, or c) Diamox® (acetazolamide; a carbonic anhydrase inhibitor used for treatment of glaucoma) (positive control) at a concentration of 20 mg/kg. Intraocular pressure is measured at 0, 6, 12, and 24 hours following administration of each formulation.

OCCNC(=S)NCc1ccc(F)cc1 [FORMULA 3]
Patient-reported allodynia resulting from shingles [1]: markedly reduced
Sedation: reduction in the exploratory activity of the rats (male Sprague-Dawley rats; 1 mg/kg i.p.): not sedating
Patient-reported visceral pain (visceral pain): significant alleviation
Reduction of the response to tactile stimuli that indicate tactile allodynia (analgesic in chronic pain model) [2]: analgesic in a model of chronic pain

OCCNC(=S)NCc1ccc(F)cc1 [AGN196204]
Reduction of the response to tactile stimuli that indicate tactile allodynia (analgesic in chronic pain model) [2]: able to reduce the response to the tactile stimuli

OCCNC(=S)NCc1ccccc1F [FORMULA 4, reference compound]
Sedation: reduction in the exploratory activity of the rats (male Sprague-Dawley rats; 3 mg/kg i.p.): not sedating
Analgesic activity (tactile allodynia) ([2]; i.p. doses up to 3 mg/kg): no analgesic activity

CC(=O)Nc1nnc(S(N)(=O)=O)s1 [Diamox ®, acetazolamide, reference compound]
Change in Intraocular Pressure (%) ([3]; oral 20 mg/kg (positive control), 0 hours): 0%
Change in Intraocular Pressure (%) ([3]; oral 20 mg/kg (positive control), 6 hours): −38%
Change in Intraocular Pressure (%) ([3]; oral 20 mg/kg (positive control), 12 hours): −41%
Change in Intraocular Pressure (%) ([3]; oral 20 mg/kg (positive control), 24 hours): −18%

OCCNC(=S)NCc1cccc(Cl)c1F [FORMULA 2, 1-(3-chloro-2-fluorobenzyl)-3-(2-hydroxyethyl)-thiourea]
Patient-reported allodynia resulting from shingles [1]: markedly reduced
Sedation: reduction in the exploratory activity of the rats (male Sprague-Dawley rats; 1 mg/kg i.p.): not sedating
Patient-reported visceral pain (visceral pain): significant alleviation
Reduction of the response to tactile stimuli that indicate tactile allodynia (analgesic in chronic pain model) [2]: able to reduce the response to the tactile stimuli
Change in Intraocular Pressure (%) ([3]; oral 2 mg/kg, 0 hours): 0%
Change in Intraocular Pressure (%) ([3]; oral 2 mg/kg, 6 hours): −18%
Change in Intraocular Pressure (%) ([3]; oral 2 mg/kg, 12 hours): −32%
Change in Intraocular Pressure (%) ([3]; oral 2 mg/kg, 24 hours): −3%
Change in Intraocular Pressure (%) ([3]; oral 7 mg/kg, 0 hours): 0%
Change in Intraocular Pressure (%) ([3]; oral 7 mg/kg, 6 hours): −22%
Change in Intraocular Pressure (%) ([3]; oral 7 mg/kg, 12 hours): −26%
Change in Intraocular Pressure (%) ([3]; oral 7 mg/kg, 24 hours): −15%
